The results in this text go back to article PMC7822816, “Halo-fluorescein for photodynamic bacteria inactivation in extremely acidic conditions” (Nature Communications, 2021).

One series deals with H. pylori. Kind of series: IC50 of photodynamic inactivation, H. pylori. Conditions: Helicobacter pylori, 10 min, pH 2.5, read-out: IC50 (H. pylori).
The nature of series [1]: Photophysical characterization (absorption, fluorescence, phosphorescence, lifetime). Type of series: physicochemical. The method, then:
Section S6. Photophysical Characterizations
S6.1 Absorption, fluorescence, and phosphorescence spectra
Fluorescein and its derivatives were dissolved in DMSO to obtain 1 mM stock solutions.
The stock solutions were diluted with deionized water to 10 μM.
Supplementary Figure 20. The absorption (black), fluorescence (blue), and phosphorescence (red, slit 25 nm) spectra of FL.
Supplementary Figure 21. The absorption (black), fluorescence (blue), and phosphorescence (red, slit 25 nm) spectra of DCF.
S6.2 Fluorescence lifetime
Fluorescence decay samples was recorded with Fluorolog-3 (Horiba). The solution of samples were prepared to be 5 μM in 0.5% (v/v) DMSO, and diluted with 0.1M NaOH.
S6.5 Photophysical properties of the halogenated-fluorescein derivatives
Supplementary Table 4. Photophysical Properties of Halogenated-fluorescein derivatives. […]
a Measured in 2% DMSO; b Measured in 2% DMSO citric acid -disodium hydrogen phosphate buffer; c Measured in a mixed solvent of D 2O and CH3CN (VD2O:
VCH3CN = 1: 15); d The solution of samples were prepared to be 5 μM in 0.5% (v/v) DMSO, and diluted with 0.1 M NaOH.

For the next series, the system named is A. acidoterrestris. Kind of series: IC50 of photodynamic inactivation, A. acidoterrestris. Particulars: Alicyclobacillus acidoterrestris, 10 min; pH 2.5; LED 520 nm, 35 mW/cm^2, 10 min. Type of series: cell-based.
For a further series, the system named is C. albicans. Kind of series: Fresh food preservation (infected tomato model). More on the design: species or system Candida albicans. The text has this:
Besides fruit juices, the potential of TIF for photo-assisted fresh food preservation was also investigated with tomato as the model (pH 3.0). […] Therefore, the food additive TIF is also promising for fresh food preservation.
Tomatoes were selected as the model for photo-assisted fresh food preservation. All the tomatoes were divided into six groups, and made a wound of ~7 cm^2 by hot water. […] Afterward, the tomatoes were stored at room temperature and then subjected to repeated irradiation at day 2. The total viable counts of bacteria on the infected tomatoes were measured in day 3.

A further series deals with L. plantarum. Kind of series: Photodynamic inhibition of L. plantarum (coating plate method). Type of series: cell-based, Lactobacillus plantarum.
Series [2] can be described thus: pH titration of halogenated fluorescein (pH0.5). Type of series: physicochemical. The method, then: The pH0.5 values (the pH value when the open form reduce to the half of the maximum) of various fluorescein derivatives were determined experimentally through pH titration (Supplementary Figs. 6–16).
The pH of the solutions were adjusted through varying the ratios of citric acid and Na2HPO4 (pH 2.2–8.0), and further acidity was adjusted with concentrated HCl or 1 M NaOH. The absorption and fluorescence spectra of the resultant solutions were then collected.
Section S5. pH-dependent Properties of the Halogenated Fluoresceins.
S5.1 pH titration of halogenated fluorescein
Fluorescein derivatives (Supplementary Table 1) were dissolved in DMSO to obtain 1 mM stock solutions and then diluted with citric acid-Na2HPO4 buffer (100 mM) to 10
μM. The pH of the solutions were adjusted through varying the ratios of citric acid and Na2HPO4 (pH 2.2-8.0), and further acidity was adjusted with concentrated HCl or 1 M
NaOH. The absorption and fluorescence spectra of the resultant solutions were then

In series [3] the test system is bacteria in passionfruit lemon juice. In words: Photodynamic sterilization of acidic juices. The method, then:
The prepared juice samples were divided into two groups: one for light treatment of 10–20 min (xenon lamp with 420 nm long-pass filter, 100 mW/cm^2), and another without (stored at 4 °C). […] For other juices (pH 3.6–4.6), similar bacteria inhibition results were obtained (Supplementary Figs. 63–66). Besides, the greatly extended shelf life was also applicable to strawberry juice (Supplementary Fig. 67) and tomato juice (Supplementary Fig. 68). […] It should be noted that the TIF-based method was efficient in treatment of acid- and heat-resistant A. acidoterrestris (Fig. 6), the main cause of fruit juice spoilage and deterioration (even after pasteurization[41]).
Fresh juices were prepared and divided into two groups (each to a culture dish of 60 mm id), and then TIF was added with final concentration of 10 μM. One group was subjected to light processing (xenon lamp, 300 W, 420 nm optical filter, beam spot size 60 mm) for 10–20 min, and another without. All samples were sub-packed into the headspace bottle and stored in 4 °C for different time. To determine the bacteria colonies, 1 mL juice samples were mixed with plate count agar and culture at 37 °C for 48 h (GB 4789.2-2016). Afterward, the total number of bacteria colonies were counted.

Series [4] can be described thus: 1O2 phosphorescence emission under different pH and irradiance. Type of series: physicochemical. Particulars: pH 2.2 (the gastric acidity), 10 μM. The text has this: To evaluate the pH-dependent ^1O2 generation, TIF, PB, and RB were chosen here because of their high ^1O2 generation efficiency and low pH0.5. […] Similar results from PB and RB were also observed (Supplementary Figs. 17 and 18). When pH was lowered down to 2.2 (the gastric acidity), appreciable ^1O2 phosphorescence emission was still collected from TIF, indicating the good performance of TIF in photosensitized generation of ^1O2 in extremely acidic condition. Besides, the pH-induced decrease of ^1O2 generation could be compensated through enlarging the light irradiance. […] Therefore, TIF featured good performance for potential photodynamic bacteria inactivation at extremely acidic conditions.
A total of 10 μM TIF solutions were first prepared with citric acid–Na2HPO4 buffer (100 mM, diluted by D2O) to yield different pH (2.2–6.0). Then, a laser of 532 nm was selected as the lighting source, and the ^1O2 phosphorescence emission were collected.
S5.3 1O2 phosphorescence emission of TIF under different pH and irradiance 10 μM TIF solutions were first prepared with citric acid-Na2HPO4 buffer (100 mM, diluted by D2O) to yield different pH (2.2-6.0). The pH value of solution were adjust by HCl (c, diluted by D2O). Then, laser of 532 nm was selected as the light source, and the 1O2 phosphorescence emission were collected by near infrared detector (H-10330)
Supplementary Figure 19. […]

Where “and” joins values, the source holds several entries; their conditions need not be identical. Equal values may be shown once.

Experimental for H. pylori: For quantitative comparison, the half-maximal inhibitory concentrations (IC50) of TIF for these bacterial were measured (Supplementary Table 6, and Supplementary Figs. 51–58).
Bacterial strains are listed in Supplementary Table 6. S. aureus and MRSA, and C. albicans were provided by West China Hospital of Stomatology, Sichuan University. A. acidoterrestris, S. enterica, H. pylori, L. plantarum, and E. coli were provided by College of Life Science, Sichuan University. The bacteria were cultured overnight in a constant temperature oscillator (37 °C, 170 r/min, the specific culture conditions were listed in Supplementary Table 6). Suspensions of bacteria (100 μL, diluted 1000-folds, PBS) were added with different concentration PSs (final volume of 1 mL), and irradiated with LED (λ = 520 nm, 35 mW/cm^2) for 10 min. Then, the treated bacteria liquid (100 μL) were added into the culture medium and cultured in a 24-well plate. The OD600 of bacteria was measured to obtain the bacteria CFUs, and the survival rate were calculated as C/C0 × 100%, where C is the CFU of sample which treated with PSs and light, and C0 is the blank without any treatment. All photodynamic sterilizations were carried out in at least three replicates.
Irradiation: 520 nm green LED (6 mW/cm2), 10 min. Error bars = Standard Deviation (n=3).
Irradiation: 520 nm green LED (6 mW/cm2), 10 min.

The IC50 is the concentration needed to halve the response being measured. Take `O=C(O)c1ccccc1-c1c2cc(I)c(=O)c(I)c-2oc2c(I)c(O)c(I)cc12` [TIF, 2′,4′,5′,7′-tetraiodofluorescein]: the IC50 in the series with H. pylori turned out to be 180 nM. In series [1], this compound gave a kdec of 1e+11 s⁻¹, a knr of 9.97e+10 s⁻¹, a krad of 3e+08 s⁻¹ and a maximum absorption of 526 nm. Further, the ΦFL in series [1] (5 μM in 0.5% (v/v) DMSO, diluted with 0.1 M NaOH) amounted to 0.003. Moreover, in series [1] (2% DMSO), the λAbs came out at 527 nm, the λPh amounted to 701 nm and the λem is on record as 551 nm. Moreover, the τfl in series [1] (fluorescence lifetime, 5 μM in 0.5% DMSO, 0.1 M NaOH) was 0.01 ns. The IC50 in the series on A. acidoterrestris was found to be 580 nM. Further, in the series with C. albicans (10 μM in pH 3.0 PBS, TIF only), the “wound infection of tomatoes, without light” value was “different magnitudes of wound infection”. Moreover, the “colony counting of infected tomatoes” value in the series on C. albicans (day 3, 10 μM, pH 3.0, 520 nm LED) is “excellent antimicrobial ability”. In addition, the “antimicrobial activity at different pH” value in the series with L. plantarum (0.5 μM, light, pH range 2.5–7.0) is reported as “considerable antimicrobial activity”. In addition, the “dark toxicity (bacteria growth)” value in the series on L. plantarum (no light, concentration up to 50 μM) was “no significant inhibition of bacteria growth”. In the series on L. plantarum (pH 2.5, 10 μM, irradiation 1 h), the “live/dead bacterial staining (SYTO 9/propidium iodide)” value is “bright red fluorescence”; the “membrane integrity (SEM, TEM)” value is “obvious deformation and distortion parts”. The same compound displayed a pH0.5 in series [2] (2% DMSO citric acid-disodium hydrogen phosphate buffer (Supplementary Table 4)) of 4.07. In addition, the “lowering of pH0.5 compared with fluorescein” value in series [2] (difference to fluorescein (6.09)) is listed as 2.02 units. The “shelf life of juice after photo-treatment” value in series [3] (passionfruit lemon juice pH 2.8, 10 μM, xenon lamp 420 nm long-pass 100 mW/cm^2, 10 min, stored at 4 °C) was ~ 15 days and 15 days. For the same compound, in series [3] (passionfruit lemon juice, versus pasteurization and O3 treatment), the “sterilization performance compared with standard methods” value was “comparable sterilization performance as pasteurization”. Also, in series [4], the “1O2 phosphorescence emission (1270 nm)” value is “appreciable”.
